Measured values reported in patent publication US20240350458A1, “14-3-3 PROTEIN MODULATORS AS ANTITUMOR AGENTS” (priority 2021, published 2024).
Entries after “also recorded” stand apart in the source; their conditions may differ.

Tests used:
FARAGE = experiment: MTT proliferation assay, B-cell lymphoma cell line; format: cell-based; details: 72 h of drug incubation
Procedure: (§1) All the above compounds were tested in vitro for their anticancer activity against a panel of eight B-cell lymphoma cell lines by MTT proliferation assay. The tested cell lines belonging to mantle cell lymphoma (MCL: REC1, Z138), activated B-cell diffuse large B-cell lymphoma (ABC-DLBCL: R11, HBL1, U2932, TMD8), germinal center B-cell diffuse large B-cell lymphoma (GCB-DLBCL: SU-DHL-10, FARAGE) subtypes. In overall, MCL cell lines present Cyclin D1 overexpression, while ABC- and GCB-DLBCL's proliferation is BCR and BCL6/HDACs driven, respectively. At the RNA level, all tested lymphoma cell lines were characterized by an overexpression of 14-3-3 zeta as reported for B-cell lymphomas resistant to chemotherapeutic regimen.

HBL1 = experiment: MTT proliferation assay, B-cell lymphoma cell line; format: cell-based; details: HBL1, 72 h of drug incubation
Procedure: as §1

REC1 = experiment: MTT proliferation assay, B-cell lymphoma cell line; format: cell-based; details: Homo sapiens; REC1, 72 h of drug incubation
Procedure: as §1

RI1 = experiment: MTT proliferation assay, B-cell lymphoma cell line; format: cell-based; details: Ri-1; RI1, 72 h of drug incubation
Procedure: as §1

SUDHL10 = experiment: MTT proliferation assay, B-cell lymphoma cell line; format: cell-based; details: Homo sapiens, SU-DHL10; SUDHL10, 72 h of drug incubation
Procedure: as §1

TMD8 = experiment: MTT proliferation assay, B-cell lymphoma cell line; format: cell-based; details: Homo sapiens; TMD8, 72 h of drug incubation
Procedure: as §1

U2932 = experiment: MTT proliferation assay, B-cell lymphoma cell line; format: cell-based; details: Homo sapiens; U2932, 72 h of drug incubation
Procedure: as §1

Z138 = experiment: MTT proliferation assay, B-cell lymphoma cell line; format: cell-based; details: Homo sapiens, Z-138; Z138, 72 h of drug incubation
Procedure: as §1

[1] = test system: eight B-cell lymphoma cell lines; experiment: MTT proliferation assay, panel of eight B-cell lymphoma cell lines; format: cell-based
Procedure: as §1

[2] = test system: ATC-derived cell lines (Sw, FRO, 8505c); experiment: MTT proliferation assay, three ATC-derived cell lines; format: cell-based; details: Homo sapiens; three ATC-derived cell lines (Sw, FRO, 8505c), 72 h; read-out: IC50 value after 72 h exposure
Procedure: (§2) The antiproliferative activity was assessed by MTT proliferation assay (Table III) The anticancer activity was also investigated in a rare and lethal cancer (i.e. anaplastic thyroid cancer) by the use of three ATC-derived cell lines (Sw, FRO, 8505c). Again, the IC50 value after 72 h exposure was in the range of 10 to 50 nM. The same trend was also observed in four melanoma cell lines A2058, M14 (genotype BRAFV600E), SKMEL 197 e MEWO (genotype BRAF wild-type).

6647 = experiment: MTT proliferation assay, Ewing sarcoma; format: cell-based
Procedure: as §2
(§3) Table III IC50 expressed in μM and Emax (at 30 μM) for FC86 after 72 h exposure, were calculated by MTT assay

A673 = experiment: MTT proliferation assay, Ewing sarcoma; format: cell-based; details: Homo sapiens
Procedure: as §2, §3

SKNMC = experiment: MTT proliferation assay, Ewing sarcoma; format: cell-based; details: Homo sapiens, SK-N-MC, 72 h exposure
Procedure: as §2, §3

TC-32 = experiment: MTT proliferation assay, Ewing sarcoma; format: cell-based; details: Homo sapiens
Procedure: as §2, §3

TC-71 = experiment: MTT proliferation assay, Ewing sarcoma; format: cell-based
Procedure: as §2, §3

[3] = test system: healthy human thyroid cells; experiment: Toxicity in healthy human thyroid cells (trypan blue staining); format: cell-based; details: 72 h
Procedure: FRTL5 were assayed with MTT, while healthy human thyroid cells by trypan blue staining. The percentage of dead cells, as counted after trypan blue staining, was around 10-15% at the dose of 800 nM of FC86.
To assess the toxicity FC86 was evaluated against a primary healthy human thyroid cell line at concentrations ranging from 3 nM to 800 nM for 72 h (FIG. 3). Data collected reveal that FC86 is not toxic for healthy human thyroid cells at concentration […] 400 nM. Such a concentration is 20× fold higher than IC50 detected in tumour cell lines.

[4] = test system: human lymphoma cell line TMD8; experiment: Lymphoma xenograft in Nod-Scid mice; format: in vivo; details: 100 mg/kg oral gavage once daily, five times per week
Procedure: FIG. 6 reports ADME-TOX profiling of compounds FC91, FC85, and FC86 as explained in example 7 FIG. 7 reports the inhibition of the compound FC86 on tumor growth in xenograft models of lymphoma (TMD8 engrafted in NOD-Scid mice); vehicle group (blue line), n=9 mice; FC86 treated group (red line), n=9 mice (Example 8). Tumor volume expressed in cubic mm plus SEM (Student t-test); p<0.01.
To this purpose, the compound was administered by oral gavage to Nod-Scid mice engrafted with the human lymphoma cell line TMD8 (15 millions of cells in 100 uL PBS/mouse). […] Body conditions were not affected by the treatments.

[5] = test system: peripheral blood mononuclear cells (PBMC); experiment: Annexin V apoptosis in PBMC from healthy donors (FACS); format: cell-based; details: 200 nM, 48 h
Procedure: FC86 was incubated with cells at the concentration of 200 nM for 48 h. Annexin V was detected by flow cytometry (FACS). PBMCs (Peripheral blood mononuclear cells) were not affected by FC86.

Cc1ccc(S(=O)(=O)Nc2ccc3c(c2)/C(=C/c2cccs2)C(=O)N3)cc1 [FC86, N-[(3Z)-2-oxo-3-(thiophene-2-ylmethylidene)-2,3-dihydro-1H-indol-5-yl]-4-methylbenzenesulfonamide]
IC50 (FARAGE): 0.015 µM | IC50 (HBL1): 0.025 µM | IC50 (REC1): 0.01 µM | IC50 (RI1): 0.025 µM | IC50 (SUDHL10): 0.025 µM | IC50 (TMD8): 0.02 µM | IC50 (U2932): 0.02 µM | IC50 (Z138): 0.025 µM | IC50 ([1]; B-cell, read-out: IC50 in all eight lymphoma cell lines): < 1 µM | IC50 in eight different lymphoma cell lines ([1]; eight different lymphoma cell lines): nanomolar range | IC50 [2]: 0.01 to 0.05 µM | Emax at 30 µM (6647; Ewing Sarcoma 6647, 30 μM, 72 h): 75% | IC50 (6647; Ewing Sarcoma 6647, 72 h exposure): 0.09 µM | Emax at 30 µM (A673; Ewing Sarcoma A673, 30 μM, 72 h): 85% | IC50 (A673; Ewing Sarcoma A673, 72 h exposure): 3.2 µM | IC50 (SKNMC): > 30 µM | Emax at 30 µM (TC-32; Ewing Sarcoma TC-32, 30 μM, 72 h): 75% | IC50 (TC-32; Ewing Sarcoma TC-32, 72 h exposure): 0.03 µM | Emax at 30 µM (TC-71; Ewing Sarcoma TC-71, 30 μM, 72 h): 95% | IC50 (TC-71; Ewing Sarcoma TC-71, 72 h exposure): 0.8 µM | toxicity for healthy human thyroid cells ([3]; at concentration higher than 400 nM): not toxic | percentage of dead cells (trypan blue staining) ([3]; healthy human thyroid cells, 800 nM): 10-15% | body conditions [4]: not affected | tumor size vs vehicle at the end of the study [4]: two times smaller | tumor growth inhibition ([4]; p<0.01): significantly inhibit tumor growth | apoptosis (Annexin V) in PBMC [5]: did not detect any sign of apoptosis; also recorded: not affected
